Reference: patent publication US5254731A, “Substituted 3,4-dihydronaphthalenes, pharmaceutical compositions containing them, and preparation processes” (Gruenenthal GmbH, priority 1991, dated 1993)

Key:
[1] = system: bronchoconstriction elicited by ovalbumin; assay: anti-asthmatic effect: ovalbumin-elicited bronchoconstriction in anesthetized, passively sensitized guinea pigs; type: in vivo, guinea pig; conditions: Cavia porcellus, 1 h; oral, 60 minutes before ovalbumin 0.2 mg/kg i.v.; read-out: ED40 (40% average inhibition of the bronchoconstriction elicited by ovalbumin)
Experimental: The anti-asthmatic effect of compounds according to the invention was tested in anesthetized and ventilated guinea pigs. To induce an asthmatic reaction, the animals were passively sensitized by a single intraperitoneal injection of anti-ovalbumin serum. After 48 hours the asthmatic reaction was elicited by intravenous challenge with 0.2 mg/kg of ovalbumin. The immediately resulting bronchoconstriction was measured as an increase in intratracheal pressure. Effects caused by histamine, serotonin and sympathic counterreaction were eliminated by intravenous pretreatment with 2.15 mg/kg of mepyramine, 46.4 mg/kg of propranolol, 4.64 mg/kg of atropine and 1 mg/kg of methysergide, all administered 5 minutes before challenge. Substituted 3,4-dihydronaphthalenes were orally administered 60 minutes before the administration of ovalbumin.

[2] = system: endotoxin/galactosamine-induced hepatitis; assay: endotoxin/galactosamine-induced hepatitis in mice (septic shock model); type: in vivo, mouse; conditions: for Inhibition of increase of the enzymatic activity of GPT / Inhibition of increase of the enzymatic activity of SDH: i.p., 10 mg/kg for each of five administrations, serum, 8 hours after endotoxin; for shock mortality: endotoxin/galactosamine-induced hepatitis model
Experimental: To evaluate the effects of compounds according to the invention on septic shock, endotoxin/galactosamine-induced hepatitis in mice was used as test model. […] Intraperitoneal administration of compounds of formula I 30 minutes before, simultaneously with, and 2, 4 and 6 hours after administration of the endotoxin inhibits the hepatitis-induced increase of the activities of these enzymes in the serum. On administration of compounds of formula I in doses of 10 mg/kg for each of the five administrations, the following percentage inhibitions of the increase of the enzymatic activities of GPT and SDH were achieved (the increase of enzymatic activities in control animals who had been treated five times with a solution containing 1% by weight of sodium carboxymethylcellulose was set at 100%): […]

[3] = comparative compounds of formula A, aforementioned test model
[4] = comparative compound, aforementioned test model

Structure (SMILES)	ED40 [1] [mg/kg]	Inhibition of increase of the enzymatic activity of GPT [2] [%]	Inhibition of increase of the enzymatic activity of SDH [2] [%]	also measured
CC(=O)N(O)CC1=Cc2ccc(OC3CCCC3)cc2CC1 [Example 6a, N-[(6-cyclopentyloxy 3,4-dihydronaphth 2 yl)methyl]acetohydroxamic acid]	275			
COc1ccc2c(c1)CCC(CN(O)C(N)=O)=C2 [Example 3, N-hydroxy-N-[(6-methoxy-3,4-dihydronaphth-2-yl)methyl]urea]	33.5	78	57	
COc1ccc2c(c1)CCC(C(C)N(O)C(C)=O)=C2 (stereo not drawn) [Example 2, N-[1-(6-methoxy-3,4-dihydronaphth-2-yl)ethyl]acetohydroxamic acid]		56	69	
COc1ccc2c(c1)CCC(CN(O)C(C)=O)=C2 [Example 1, N-[(6-methoxy-3,4-dihydronaphth-2-yl)methyl]acetohydroxamic acid]		54	41	
CC(C)Oc1ccc2c(c1)CCC(CN(O)C(N)=O)=C2 [Example 6e, N-hydroxy-N-[(6-isopropoxy-3,4-dihydronaphth-2-yl)methyl]urea]	368			
CC(=O)N(O)CC1=Cc2ccc(OCc3ccccc3)cc2CC1 [Example A2, reference compound]				inhibition of GPT [2, 3]: 16%; inhibition of SDH [2, 3]: 32%; shock mortality [2]: no detectable influence on shock mortality
NC(=O)N(O)CC1=Cc2ccc(OCc3ccccc3)cc2CC1 [Example A1, reference compound]				inhibition of GPT (in words) [2, 4]: did not cause either an inhibition of GPT; inhibition of SDH (in words) [2, 4]: did not cause either an inhibition of GPT and SDH; shock mortality [2]: did not cause either an inhibition of GPT and SDH or a decrease in the shock mortality
